ChEMBL document CHEMBL1201862, “PubChem BioAssay data set” (2004)
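Briefly, cells in 96-well plates were exposed to five compound concentrations for 48 h, and endpoints were estimated by linear interpolation. Here, GI50 denotes the concentration required for 50% inhibition of growth.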 The source made the active and inactive calls. No stated cut-off is given here; in the data, active = GI50 up to about 1.1 µM and inactive = higher.

Tests used:
Assay in all cases: NCI tumour cell line growth inhibition, 48 h
A549 = tested on: A549
CCRF-CEM = tested on: CCRF-CEM
EKVX = tested on: EKVX
HCT-15 = tested on: HCT-15
HL-60 = tested on: HL-60
HOP-62 = tested on: HOP-62
HT-29 = tested on: HT-29
Hs-578T = tested on: Hs-578T
M14 = tested on: M14
MDA-MB-435 = tested on: MDA-MB-435
Malme-3M = tested on: Malme-3M
NCI/ADR-RES = tested on: NCI/ADR-RES
OVCAR-3 = tested on: OVCAR-3
RPMI-8226 = tested on: RPMI-8226
SK-MEL-5 = tested on: SK-MEL-5
SN12C = tested on: SN12C
SR = tested on: SR
U-251 = tested on: U-251
UACC-62 = tested on: UACC-62
SF-539 = tested on: SF-539

| SMILES | GI50 (A549) | GI50 (CCRF-CEM) | GI50 (EKVX) | GI50 (HCT-15) | GI50 (HL-60) | GI50 (HOP-62) | GI50 (HT-29) | GI50 (Hs-578T) | GI50 (M14) | GI50 (MDA-MB-435) | GI50 (Malme-3M) | GI50 (NCI/ADR-RES) | GI50 (OVCAR-3) | GI50 (RPMI-8226) | GI50 (SK-MEL-5) | GI50 (SN12C) | GI50 (SR) | GI50 (U-251) | GI50 (UACC-62) | GI50 (SF-539) |
| --- | --- | --- | --- | --- | --- | --- | --- | --- | --- | --- | --- | --- | --- | --- | --- | --- | --- | --- | --- | --- |
| O=C1C(c2c(O)[nH]c3ccccc23)=Nc2ccc(Br)cc21 | 27.2 µM (inactive) | 21.2 µM (inactive) | 15.1 µM (inactive) | 76.2 µM | 23.7 µM (inactive) | 21.3 µM (inactive) | 23.9 µM (inactive) | 19.5 µM (inactive) | 93.5 µM (inactive) | 61.8 µM (inactive) | > 100 µM (inactive) | 37.4 µM (inactive) | 99.5 µM (inactive) | 75.7 µM (inactive) | > 100 µM (inactive) | 77.1 µM (inactive) | 26.5 µM (inactive) | 19.5 µM (inactive) | 17.6 µM (inactive) | – |
| CCNCCC1(CC)C(=O)NC(=O)NC1=O | > 100 µM (inactive) | – | > 100 µM (inactive) | > 100 µM | 0.0288 µM (active) | > 100 µM (inactive) | > 100 µM (inactive) | > 100 µM (inactive) | > 100 µM (inactive) | > 100 µM (inactive) | > 100 µM (inactive) | > 100 µM (inactive) | > 100 µM (inactive) | > 100 µM (inactive) | > 100 µM (inactive) | > 100 µM (inactive) | > 100 µM (inactive) | > 100 µM (inactive) | > 100 µM (inactive) | > 100 µM (inactive) |
| O=C1CSC(c2cccc(Oc3ccccc3)c2)N1c1ccc(Cl)cc1 (stereo unspecified) | 31.9 µM (inactive) | 51.4 µM (inactive) | 20.7 µM (inactive) | 26.4 µM | 24.9 µM (inactive) | 57 µM (inactive) | 37.8 µM (inactive) | 32.9 µM (inactive) | 15 µM (inactive) | 23.2 µM (inactive) | 20.4 µM (inactive) | 24.4 µM (inactive) | 39.4 µM (inactive) | – | 11.9 µM (inactive) | 41.3 µM (inactive) | 14 µM (inactive) | 31 µM (inactive) | 10.8 µM (inactive) | 32.1 µM (inactive) |
| CNC(=O)Nn1c(SC)nc2ccccc21 | > 100 µM (inactive) | > 100 µM (inactive) | > 100 µM (inactive) | > 100 µM | > 100 µM (inactive) | > 100 µM (inactive) | > 100 µM (inactive) | > 100 µM (inactive) | > 100 µM (inactive) | > 100 µM (inactive) | > 100 µM (inactive) | > 100 µM (inactive) | – | > 100 µM (inactive) | > 100 µM (inactive) | > 100 µM (inactive) | > 100 µM (inactive) | > 100 µM (inactive) | > 100 µM (inactive) | – |
| COC(=O)C1=C(O)C(C(=O)OC)[C@]2(O)[C@H](C(=O)OC)[C@H]1C[C@@H](c1ccc(Cl)cc1Cl)[C@H]2C(=O)OC (stereo partly specified) | 4.36 µM (inactive) | – | 19.1 µM (inactive) | 4.91 µM | 2.65 µM (inactive) | 5.5 µM (inactive) | 13.2 µM (inactive) | 15.5 µM (inactive) | 6.24 µM (inactive) | 4.09 µM (inactive) | 6.95 µM (inactive) | 3.83 µM (inactive) | 5.14 µM (inactive) | 1.75 µM (inactive) | 4.91 µM (inactive) | 3.28 µM (inactive) | 4.06 µM (inactive) | 2.72 µM (inactive) | 9.46 µM (inactive) | 2.84 µM (inactive) |
| O=C(O)CCSC1=NCCN1 | > 100 µM (inactive) | 98.6 µM (inactive) | > 100 µM (inactive) | > 100 µM | > 100 µM (inactive) | > 100 µM (inactive) | > 100 µM (inactive) | > 100 µM (inactive) | > 100 µM (inactive) | > 100 µM (inactive) | > 100 µM (inactive) | > 100 µM (inactive) | > 100 µM (inactive) | > 100 µM (inactive) | > 100 µM (inactive) | > 100 µM (inactive) | > 100 µM (inactive) | > 100 µM (inactive) | > 100 µM (inactive) | – |
| CCN(CC)c1nc(N(C)C)c2ccc(OC)cc2n1 | 19.7 µM (inactive) | – | 3.95 µM (inactive) | 12.4 µM | 3.64 µM (inactive) | 19.7 µM (inactive) | 4.12 µM (inactive) | 39.9 µM (inactive) | 8.75 µM (inactive) | 10.5 µM (inactive) | 18.3 µM (inactive) | 11.9 µM (inactive) | – | 10.1 µM (inactive) | 11.6 µM (inactive) | 15 µM (inactive) | 12.7 µM (inactive) | 20.2 µM (inactive) | 6.65 µM (inactive) | 16.7 µM (inactive) |
| Cc1cc([C@H](C#N)c2nc3ccccc3[nH]2)nc(Cl)n1 | 33.9 µM (inactive) | 30.8 µM (inactive) | 62.2 µM (inactive) | 25.8 µM | 19.2 µM (inactive) | – | 41.7 µM (inactive) | > 100 µM (inactive) | – | 30.4 µM (inactive) | 77.3 µM (inactive) | 30.1 µM (inactive) | – | 5.65 µM (inactive) | 13.7 µM (inactive) | 51.2 µM (inactive) | 54.8 µM (inactive) | 23.6 µM (inactive) | 22.3 µM (inactive) | 61.9 µM (inactive) |
| Cn1c(=O)c2c(nc3n(CCCCl)c(=O)ccn23)n(C)c1=O | > 100 µM (inactive) | > 100 µM (inactive) | > 100 µM (inactive) | > 100 µM | > 100 µM (inactive) | > 100 µM (inactive) | > 100 µM (inactive) | > 100 µM (inactive) | > 100 µM (inactive) | > 100 µM (inactive) | – | > 100 µM (inactive) | > 100 µM (inactive) | > 100 µM (inactive) | > 100 µM (inactive) | > 100 µM (inactive) | > 100 µM (inactive) | > 100 µM (inactive) | > 100 µM (inactive) | > 100 µM (inactive) |
| OC(C1CCC=NN1C(O)(C(F)(F)F)C(F)(F)F)(C(F)(F)F)C(F)(F)F (stereo unspecified) | > 10 µM (inactive) | > 10 µM (inactive) | > 10 µM (inactive) | > 10 µM | – | > 10 µM (inactive) | > 10 µM (inactive) | > 10 µM (inactive) | > 10 µM (inactive) | > 10 µM (inactive) | > 10 µM (inactive) | > 10 µM (inactive) | > 10 µM (inactive) | > 10 µM (inactive) | > 10 µM (inactive) | > 10 µM (inactive) | > 10 µM (inactive) | > 10 µM (inactive) | > 10 µM (inactive) | > 10 µM (inactive) |
| O=C1C(Cl)=C(N2CCOCC2)C(=O)c2c(O)ccc(O)c21 | 1.98 µM (inactive) | 0.473 µM (active) | 1.46 µM (inactive) | 0.155 µM | – | 0.853 µM (active) | 0.233 µM (active) | 0.859 µM (active) | 0.182 µM (active) | 0.204 µM (active) | 0.223 µM (active) | 0.366 µM (active) | 0.385 µM (active) | 1.84 µM (inactive) | 0.316 µM (active) | 0.207 µM (active) | 1.4 µM (inactive) | 0.925 µM (active) | 0.729 µM (active) | 0.486 µM (active) |
| Cc1n[nH]c(=S)n1/N=C/c1ccc(-c2ccc(Cl)cc2)o1 | > 100 µM (inactive) | – | 61.9 µM (inactive) | > 100 µM | 44.2 µM (inactive) | 49.7 µM (inactive) | > 100 µM (inactive) | 37.5 µM (inactive) | > 100 µM (inactive) | > 100 µM (inactive) | – | > 100 µM (inactive) | > 100 µM (inactive) | > 100 µM (inactive) | > 100 µM (inactive) | – | > 100 µM (inactive) | 31.6 µM (inactive) | – | 77.1 µM (inactive) |
| O=C1Nc2ccc(S(=O)(=O)NCCO)cc2/C1=C1/Nc2ccccc2C1=O | > 100 µM (inactive) | 3.23 µM (inactive) | 7.69 µM (inactive) | 13.3 µM | – | 16.2 µM (inactive) | > 100 µM (inactive) | 6.73 µM (inactive) | > 100 µM (inactive) | > 100 µM (inactive) | 40.8 µM (inactive) | > 100 µM (inactive) | 4.06 µM (inactive) | 92.5 µM (inactive) | 12.7 µM (inactive) | 67.5 µM (inactive) | 1.01 µM (active) | 3.16 µM (inactive) | 7.18 µM (inactive) | – |
| CNCCCn1c2ccccc2c2c3c(c(-c4ccsc4)cc21)C(=O)NC3=O | 1.17 µM (inactive) | 0.216 µM (active) | 1.85 µM (inactive) | 1.51 µM | 2.22 µM (inactive) | 1.02 µM (active) | 0.824 µM (active) | 1.85 µM (inactive) | 0.0408 µM (active) | 1.12 µM (active) | 0.163 µM (active) | 0.71 µM (active) | 1.15 µM (inactive) | – | 0.735 µM (active) | 1.29 µM (inactive) | < 0.01 µM (active) | 1.95 µM (inactive) | 1.49 µM (inactive) | 0.0281 µM (active) |
| O=C(CCc1cc(O)cc(O)c1)NCCc1cc(O)cc(O)c1 | > 100 µM (inactive) | > 10 µM (inactive) | > 100 µM (inactive) | > 100 µM | – | > 100 µM (inactive) | > 100 µM (inactive) | > 100 µM (inactive) | > 100 µM (inactive) | > 100 µM (inactive) | – | > 100 µM (inactive) | > 100 µM (inactive) | > 100 µM (inactive) | > 100 µM (inactive) | > 100 µM (inactive) | > 100 µM (inactive) | > 100 µM (inactive) | > 100 µM (inactive) | > 100 µM (inactive) |
| C/C(=N\NC(=O)c1ccccc1O)c1cccc(/C(C)=N/NC(=O)c2ccccc2O)n1 | 9.23 µM (inactive) | – | 13.8 µM (inactive) | 7.55 µM | – | 5.05 µM (inactive) | 8.61 µM (inactive) | > 65.2 µM (inactive) | 12.6 µM (inactive) | 41.8 µM (inactive) | 10.6 µM (inactive) | 27.6 µM (inactive) | – | 14.7 µM (inactive) | 6.97 µM (inactive) | 6.07 µM (inactive) | 1.89 µM (inactive) | – | 2.58 µM (inactive) | – |
